Source: patent publication US7438933B2, “Maternal multi-nutrient against diabetes-related birth defects” (The Board of Trustees of the University of Arkansas System, priority 2004, dated 2008)

Key:
diabetic pregnancies = details: experimental models; reduced from 25%; cited from earlier work
embryos of diabetic rats = assay: Dietary supplementation of pregnant STZ-diabetic and non-diabetic rats; neural tube defects in E12 embryos; type: in vivo, rat; details: supplemented diet from day 1 of pregnancy, embryos at E12
Description: To induce diabetes, 8-week-old Sprague-Dawley female rats are injected with 65 mg/kg of streptozotocin via the tail vein. Blood glucose levels are monitored daily (by tail vein puncture using a lancet) using a Prestige Smart blood glucose meter (Home Diagnostics, Fort Lauderdale, Fla.). Once a level of hyperglycemia indicative of diabetes (>250 mg/dl) is achieved, a sustained-release insulin pellet (Linplant, Linshin, Canada) will be inserted subcutaneously.
When glucose levels are restored to normal (80-150 mg/dl) and are stable for at least three continuous days, matings can be set up with male rats of the same strain. Day zero of pregnancy is established by identifying spermatozoa in vaginal smears. At designated developmental stages, insulin pellets are withdrawn to generate hyperglycemia in the pregnant rats. A group of control rats will continuously receive insulin during the course of the experiment. Glucose levels and maternal weight are continuously monitored during the pregnancy. Since it has already been shown that there is no difference in embryonic development between streptozotocin/insulin-treated and non-streptozotocin-treated animals, the streptozotocin/insulin-treated groups are used as an equivalent of non-diabetic control. At the end of the experiment, rats are euthanized and embryos dissected out of the uterus for examination and analysis. At least four pregnant rats are included in each group, from which 40-60 embryos can be obtained for examination. For each type of study, at least three replicate experiments will be carried out.
To investigate the effects of maternal hyperglycemia on embryonic malformations, the investigators employed a rat model that induces diabetes by streptozotocin (STZ). Subcutaneously implanted insulin pellets maintained euglycemia at the time of mating. On day 4 of pregnancy, the insulin pellets were removed, and the developing embryos were exposed to hyperglycemia during organogenesis (days 9-12). To maintain a euglycemic control, insulin pellets were retained in the body during the entire experimental course. On day 12, both sets of rats were euthanized, embryos were dissected out of the uteri for examination, and each embryo's yolk sac was collected for biochemical and molecular analyses.
After removal from the dams, embryos were examined under a dissecting microscope and assessed for morphological malformations in a number of categories to determine the effects of maternal hyperglycemia. […]
At E12, embryos were dissected out of uteri and evaluated for neural tube defects (NTDs), which were used as a measure of malformation rates.

yolk sacs = assay: DNA laddering assay of apoptosis in embryonic yolk sacs after maternal supplementation; type: in vivo, rat; details: embryos of diabetic mothers with supplemented diet, FIG. 7
Description: To determine whether hyperglycemia is associated with programmed cell death in embryos, DNA laddering was examined in yolk sacs of embryos with either diabetic or non-diabetic mothers. Yolk sac tissues were collected from embryos, and DNA was extracted using DNeasy Tissue Kit (Qiagen, Valencia, Calif.) and resolved on 0.5% agarose gel. […] To examine whether supplemented diets affected apoptosis in developing embryos of diabetic dams, DNA fragmentation (an indicator of apoptosis) was analyzed using DNA laddering assays.

caspase3 = assay: Western blot of phosphorylated caspase3 in yolk sac cells; type: in vivo, rat; details: embryos of diabetic dams with supplementation, FIG. 4A
Source text: (§1) Apoptosis is mediated by a program involving a number of factors, including caspase3 and Bax (a member of the Bcl-2 family). Hyperglycemia may stimulate JNK activity, which then activates caspases and leads to apoptosis. Activation of Bax is also a hallmark of ongoing apoptosis. To determine whether caspase and Bax activation are involved in maternal diabetic embryopathy, changes in the levels of phosphorylated caspase3 and Bax in yolk sac cells from embryos with either diabetic or non-diabetic mothers were assessed. Cell lysates were resolved on 12% polyacrylamide gel and blotted on nylon membrane. The blots were probed with antibodies raised against phosphorylated caspase3 or Bax (Santa Cruz Biotechnologies, Santa Cruz, Calif.). Signals were detected using a chemiluminescence detection method and exposed to X-ray film (FIG. 4A). The density of the bands on X-ray film was measured using densitometry (VersaDoc Imaging System, Bio-Rad, Hercules, Calif.) and analyzed with one-dimensional analysis software (Bio-Rad; FIGS. 4B and C). The value of each band was calculated as a percentage of the control, which was set at 100%.

Bax = assay: Western blot of phosphorylated Bax in yolk sac cells; type: in vivo, rat; details: embryos of diabetic dams with supplementation, FIG. 4A
Source text: as §1

ERK1/2 = assay: Western blot of phosphorylated ERK1/2 in embryonic yolk sac cells; type: in vivo, rat; details: diabetic dams with supplemented diet, changed to the levels of non-diabetic rats, FIG. 8
Description: (§2) The active forms of ERK and JNK are phosphorylated, so their activation in yolk sac tissues were assessed by Western blot detection of the corresponding phosphoproteins. The levels of phosphorylated Raf-1 which activates ERKs and Akt which is an antiapototic protein were also assessed by western blot. Yolk sac tissues were isolated, protein was extracted and analyzed using Western blotting with antibodies specific for phosphorylated ERK-1 and -2 (p-ERK1/2), JNK-1 and -2 (p-JNK1/2), RAF-1 and Akt (FIG. 6A). […] Levels of phosphorylated ERK1/2, JNK1/2, Raf-1 and Akt in embryonic yolk sac cells were evaluated using Western blot assays.

JNK1/2 = assay: Western blot of phosphorylated JNK1/2 in embryonic yolk sac cells; type: in vivo, rat; details: diabetic dams with supplemented diet, changed to the levels of non-diabetic rats, FIG. 8
Description: as §2

Structure (SMILES)	malformation rate in diabetic pregnancies (diabetic pregnancies) [%]	NTDs (%) (embryos of diabetic rats; diabetic rats)	NTDs (%) (embryos of diabetic rats; non-diabetic rats)	DNA fragmentation (DNA laddering) in yolk sacs (yolk sacs)	phosphorylated caspase3 level in yolk sacs (caspase3)	phosphorylated Bax level in yolk sacs (Bax)	level of activated ERKs (p-ERK1/2) in embryonic yolk sacs (ERK1/2)	level of activated JNKs (p-JNK1/2) in embryonic yolk sacs (JNK1/2)
O=C(O)CCCC[C@@H]1CCSS1 (racemic) [lipoic acid]	10	–	–	–	–	–	–	–
CCCCC/C=C\C/C=C\C/C=C\C/C=C\CCCC(=O)O [arachidonic acid]	–	7.6	4.1	DNA fragmentation was eliminated	reversal of increased caspase3 and Bax levels	reversal of increased caspase3 and Bax levels	altered embryo levels of activated ERKs and JNKs	altered embryo levels of activated ERKs and JNKs
Cc1c(C)c2c(c(C)c1O)CC[C@@](C)(CCC[C@H](C)CCC[C@H](C)CCCC(C)C)O2 [vitamin E, α-tocopherol]	–	6.9	5.0	DNA fragmentation was eliminated	reversal of increased caspase3 and Bax levels	reversal of increased caspase3 and Bax levels	altered embryo levels of activated ERKs and JNKs	altered embryo levels of activated ERKs and JNKs
